Results published in US12599666B2, “Photolytic compounds and triplet-triplet annihilation mediated photolysis” (University of Massachusetts, priority 2019, dated 2026).
Where “and” joins values, the source holds several entries; their conditions need not be identical. Equal values may be shown once. Read-outs that look alike come from different tables or passages of the source. Marks after values point to notes of the source that are not given here.

Assays:
[1] = cited from earlier work
[2] = Photocleavage quantum yield / photolytic quantum efficiency calculation; settings: for ε2 × Φp: ε (Sen) × Φp (PPGs); ηp (TTAP): PtOEP as sensitizer; for ε1 × Φp: ε (PPGs) × Φp (PPGs); ηp (direct): direct short wavelength illumination
From the text: We compared photolytic quantum efficiency of the widely used PPG of Cou by using the UCNPs as phototransducer.

[3] = PPGs, from the literature, cited from earlier work
[4] = Photophysical parameters of Sen and PPGs (UV-vis absorption, emission, energy levels); assay type: physicochemical; parameters: λabs maximum absorption wavelength / λem maximum emission wavelength: unit not given here; settings: for λabs maximum absorption wavelength / λem maximum emission wavelength / ξ molar extinction coefficient: in toluene, 10 μM; for T1 triplet excited state: photosensitizers (Sen), from maximum phosphorescence emission
Procedure: Characterization: ^1H NMR spectra were recorded with a Bruker 500 MHz spectrometer. UV-Vis spectra were recorded on an Agilent Cary-5 spectrophotometer. Steady-state fluorescence spectra were measured on a HITACHI F-7000 spectrometer. […] The sample for TEM measurement was prepared by dropping the solution onto a carbon-coated copper grid following negative staining with 2.0% (w/v) phosphotungstic acid. The particle size and size distribution were measured by using dynamic light scattering (DLS) on a Malvern Nano-ZS particle size analyzer, excitation wavelength 532 nm. All samples in the Stern-Volmer quenching plots experiments were deaerated with argon for ca. 15 min before measurement and the gas flow was maintained during the measurements. For the TTA upconversion spectra measurement, the diode pumped solid-state laser (650 nm, continues wave, CW, Hi-Teach company, China) was used as the excitation light source and a modified spectrofluorometer was used to record the upconversion spectra. For the prodrug photolytic experiment, an All LED (Mightex Company) was used as the excitation light source.
From the absorption and emission spectra of Sen and PPGs, the triplet and singlet energy levels of PPG and Sen can be calculated. The maximum emission wavelength of phosphorescence is the triplet excited state energy level (T1) of the Sen. The maximum emission wavelength of fluorescence is the singlet excited state energy level (S1) of the PPGs. Moreover, according to the literature, we know the triplet excited energy levels of PPGs. The detail information is always in […]

[5] = Stern-Volmer photoluminescence quenching of photosensitizers by PPGs-X; assay type: physicochemical
Procedure: The Stern-Volmer quenching plots experiment (ksv): photoluminescence of photosensitizers (PtTNP, PdTPBP, PtOEP, and Ir(ppy)3) in the presence of different concentrations of PPGs (BDP, perylene, anthracene and coumarin). The mixed solutions were degassed for at least 15 min with Ar in toluene. The ksv constants were calculated with eq 1, where 1o and It stand for photoluminescence intensity of photosensitizer in the absence of PPGs-X and the photoluminescence intensity of photosensitizer in the presence PPGs-X. Q is the concentration of PPGs-X. Biomolecular quenching constants (kq) were calculated by eq2. The Tr is the phosphorescence lifetime of photosensitizer in argon.

[6] = TTA upconversion quantum yield; assay type: physicochemical; settings: paired with PtOEP
Procedure: The upconversion quantum yields (ΦUC): The upconversion quantum yields were calculated with the eq 3, where ΦUC and Φstd stand for upconversion luminescence quantum yield of sample TTA-UC and fluorescence quantum yield of reference compounds, respectively. Aunk and Astd stand for absorbance of the TTA-UC and reference compound, respectively. Iunk and Istd stand for integrated upconversion luminescence intensity of the TTA-UC and fluorescence intensity of reference compounds, respectively. ηunk and μstd stand for the refractive index of water. The equation is multiplied by a factor of 2 to make the maximum quantum yield of two unified emitters.
The upconversion experiments were deaerated with argon for ca. 15 min before measurement and the argon gas flow was kept during the measurement.

[7] = Photolytic molecule experiment: TTAP photolytic reaction in solution under LED, HPLC yield; assay type: physicochemical
Procedure: Photolytic molecule experiment: The NIR LED (720 nm), far red LED (650 nm), green LED (530 nm), blue LED (476 nm) and deep blue (455 nm) were used for photolytic reactions. […] Then, the solution was excited with a LED (20 mW/cm^2) at 37° C. After the photolytic reaction, the raw product was dried and re-dissolved in CH3CN/H2O=(2/1, v/v) and HPLC was used to analyze the yield of product.

[8] = One photon: 120 mW/cm^2, λ > 400 nm
[9] = UCNPs as photo transducers, 570 mW cm^−2, λ = 980 nm
[10] = PtOEP, green LED light (20 mW/cm^2, 532 nm)
[11] = PdTPBP, far-red LED light (20 mW/cm^2, 650 nm)
[12] = PtTNP, NIR LED light (20 mW/cm^2, 720 nm, 1 h)

O=c1ccc2ccccc2o1 [Coumarin, coumarin]
Photocleavage quantum yield [1, 8]: 0.13 | Photolytic efficiency (ε × Φ) [1, 8]: 806 | Photocleavage quantum yield [1, 9]: 0.13 | Overall photocleavage quantum yield; η (upconversion) [2, 9]: <0.02873 | T1 triplet excited state [3]: 2.18 eV

[Pd+2].c1ccc(-c2c3nc(c(-c4ccccc4)c4[n-]c(c(-c5ccccc5)c5nc(c(-c6ccccc6)c6[n-]c2c2ccccc62)-c2ccccc2-5)c2ccccc42)-c2ccccc2-3)cc1 [PdTPBP, meso-tetraphenyltetrabenzoporphine palladium complex]
λabs maximum absorption wavelength [4]: 630 | λem maximum emission wavelength [4]: 790 | ξ molar extinction coefficient [4]: 11.0 10^4 M^−1 cm^−1 | T1 triplet excited state [4]: 1.55 eV

c1cc2cccc3c4cccc5cccc(c(c1)c23)c54 [Perylene, perylene]
Photocleavage quantum yield ([1]; 110 mW/cm^2 Hg lamp, >410 nm): 0.093 | Photolytic efficiency (ε × Φ) ([1]; 110 mW/cm^2 Hg lamp, >410 nm): 3627 | Photocleavage quantum yield ([1]; 125 WHg lamp, ≥410 nm): 0.093 | Photolytic efficiency (ε × Φ) ([1]; 125 WHg lamp, ≥410 nm): 3627 | Photocleavage quantum yield ([1]; TTAP, 20 mW/cm^2, λ = 650 nm): 0.093 | Overall photocleavage quantum yield ([2]; TTAP, 20 mW/cm^2, λ = 650 nm): 12400 | T1 triplet excited state [3]: 1.52 eV

CCC1=C(CC)c2cc3[n-]c(cc4nc(cc5[n-]c(cc1n2)c(CC)c5CC)C(CC)=C4CC)c(CC)c3CC.[Pt+2] [PtOEP, platinum octaethylporphyrin]
λabs maximum absorption wavelength [4]: 533 | λem maximum emission wavelength [4]: 647 | ξ molar extinction coefficient [4]: 7.0 10^4 M^−1 cm^−1 | T1 triplet excited state [4]: 1.92 eV

CC(=O)OCc1c2ccccc2cc2ccccc12 [compound 2]
quenching of the photoluminescence of PtOEP ([5]; PtOEP): significant quenching | ksv (bimolecular quenching constant) ([5]; PtOEP as sensitizer): 2.43 × 10^9 j M^−1S^−1 | ksv Stern-Volmer quenching constant ([5]; PtOEP as sensitizer): 219000 J/M | upconversion quantum yield [6]: 8.7% | increase of ηp (TTAP) over ηp (direct) ([2]; PtOEP): 638% | ε2 × Φp: ε (Sen) × Φp (PPGs); ηp (TTAP) [2]: 6230 ^j | ε2 × Φp: ε (Sen) × Φp (PPGs); ηp (TTAP) ([2]; listed as An): 6230 | ε1 × Φp: ε (PPGs) × Φp (PPGs); ηp (direct) [2]: 979 | ε1 × Φp: ε (PPGs) × Φp (PPGs); ηp (direct) ([2]; listed as An): 976 | T1 triplet excited state ([3]; listed as An): 1.77 ^n eV and 1.77 eV | Yield (HPLC) of photolytic reaction ([7]; PtOEP, dark, argon, 1 h): No reaction | photolytic yield [7, 10]: 83% | Yield (HPLC) of photolytic reaction ([7]; PtOEP, light, air, 1 h): Trace | Yield (HPLC) of photolytic reaction ([7]; PtOEP, light, argon, 1 h): 83.2% | Yield (HPLC) of photolytic reaction ([7]; compound only (no PtOEP), green light, argon, 1 h): No reaction | 2 × T1 − S1 ([4]; PPGs): 0.53 eV | S1 singlet excited state ([4]; PPGs, from maximum fluorescence emission): 3.02 eV | λabs maximum absorption wavelength [4]: 366 | λem maximum emission wavelength [4]: 411 | ξ molar extinction coefficient [4]: 1.1 10^4 M^−1 cm^−1

CC(C)COC(=O)OCc1c2ccccc2cc2ccccc12 [compound 3]
photolytic yield [7, 10]: 72.3%

CCCCNC(=O)OCc1c2ccccc2cc2ccccc12 [compound 4]
photolytic yield [7, 10]: 51.0%

CC(C)(C)OC(=O)NCC(=O)OCc1c2ccccc2cc2ccccc12 [compound 5]
photolytic yield [7, 10]: 58.4%

CC(C)COC(=O)OCc1ccc2c3cccc4cccc(c5cccc1c52)c43 [compound 9]
photolytic yield [7, 11]: 65.3% | photolytic yield [7, 12]: 27.8%

CCCCNC(=O)OCc1ccc2c3cccc4cccc(c5cccc1c52)c43 [compound 10]
photolytic yield [7, 11]: 52.4% | photolytic yield [7, 12]: 29.3%

CC(C)(C)OC(=O)NCC(=O)OCc1ccc2c3cccc4cccc(c5cccc1c52)c43 [compound 12]
photolytic yield [7, 11]: 89.2% | photolytic yield [7, 12]: 29.6%

CC(C)(C)OC(=O)N[C@@H](CSSC(C)(C)C)C(=O)OCc1ccc2c3cccc4cccc(c5cccc1c52)c43 [compound 14]
photolytic yield [7, 11]: 81.2% | photolytic yield [7, 12]: 23.3%

COc1ccc2cc(C(C)C(=O)OCc3ccc4c5cccc6cccc(c7cccc3c74)c65)ccc2c1 (centres unmarked) [compound 16]
photolytic yield [7, 11]: 78.5% | photolytic yield [7, 12]: 17.4%

COc1ccc2c(c1)c(CC(=O)OCc1ccc3c4cccc5cccc(c6cccc1c63)c54)c(C)n2C(=O)c1ccc(Cl)cc1 [compound 17]
photolytic yield [7, 11]: 51.7% | photolytic yield [7, 12]: 9.2%

CC(C)Cc1ccc(C(C)C(=O)OCc2ccc3c4cccc5cccc(c6cccc2c63)c54)cc1 (centres unmarked) [compound 18]
photolytic yield [7, 11]: 71.6% | photolytic yield [7, 12]: 19.4%

O=C(CCCc1ccc(N(CCCl)CCCl)cc1)OCc1ccc2c3cccc4cccc(c5cccc1c52)c43 [compound 19]
Yield (HPLC yield) ([7]; Compound 19 only, 720 nm LED, 1 h): No reaction | Yield (HPLC yield) ([7]; Compound 19 only, argon, 720 nm LED, 1 h): No reaction | Yield (HPLC yield) ([7]; Compound 19 only, argon, red light, 2 h): No reaction | Yield (HPLC yield) ([7]; Compound 19 only, red light, 2 h): No reaction | Yield (HPLC yield) ([7]; PdTPBP, air, red light, 2 h): 7 | Yield (HPLC yield) ([7]; PdTPBP, argon, dark, 2 h): No reaction | Yield (HPLC yield) ([7]; PdTPBP, argon, red light, 1 h): 72.8 | Yield (HPLC yield) ([7]; PdTPBP, argon, red light, 2 h): 67.0 | photolytic yield [7, 11]: 72.8% | photolytic yield [7, 12]: 30.4% | Yield (HPLC yield) ([7]; PtTNP, air, 720 nm LED, 1 h): No reaction | Yield (HPLC yield) ([7]; PtTNP, argon, dark, 1 h): No reaction | Yield (HPLC yield) ([7]; PtTNP, argon, 720 nm LED, 1 h): 30.4

anthracene [reference compound]
T1 triplet excited state [3]: 1.77 eV
